Measured values taken from patent publication US7060822B1, “2-pyrazolin-5-ones” (Abbott GmbH & Co. KG, priority 1999, dated 2006).

A melting point of 212 to 216 °C was found for `CCN(CC)CCc1c(C)[nH]c(C=C2C(=O)NN=C2c2ccnnc2)c1C` [Example 209, 4-{[4-(2-Diethylaminoethyl)-3,5-dimethylpyrrol-2-yl]methylene}-3-(4-pyridazinyl)-2-pyrazolin-5-one] in this work.
A melting point of 292 to 295 °C was found for `O=C1NN=C(Cc2ccccc2)C1=Cc1c[nH]c2ccccc12` [Example 210, 3-Benzyl-4-[(indol-3-yl)methylene]-2-pyrazolin-5-one] in this work.
A melting point of 217 to 220 °C was found for `O=C1NN=C(Cc2ccccc2)C1=Cc1cn(CCCCO)c2ccccc12` [Example 211, 3-Benzyl-4-{[1-(4-hydroxybutyl)indol-3-yl]methylene}-2-pyrazolin-5-one] in this work.
A melting point of 266 to 268 °C was found for `COc1ccc(OCC2=NNC(=O)C2=Cc2c[nH]c3ccccc23)cc1` [Example 212, 4-[(Indol-3-yl)methylene]-3-(4-methoxyphenyloxymethyl)-2-pyrazolin-5-one] in this work.
A melting point of 284 to 286 °C was found for `O=C1NN=C(COc2ccccc2)C1=Cc1c[nH]c2ccccc12` [Example 213, 4-[(Indol-3-yl)methylene]-3-phenyloxymethyl-2-pyrazolin-5-one] in this work.
A melting point of 264 to 267 °C was found for `O=C1NN=C(COc2ccc(Cl)cc2)C1=Cc1c[nH]c2ccccc12` [Example 214, 3-(4-Chlorophenyloxymethyl)-4-[(indol-3-yl)methylene]-2-pyrazolin-5-one] in this work.
A melting point of 265 to 270 °C was found for `COc1ccc(CC2=NNC(=O)C2=Cc2c[nH]c3ccccc23)cc1` [Example 215, 4-[(Indol-3-yl)methylene]-3-(4-methoxybenzyl)-2-pyrazolin-5-one] in this work.
A melting point of 288 to 291 °C was found for `Cc1ccc(OCC2=NNC(=O)C2=Cc2c[nH]c3ccccc23)cc1` [Example 216, 4-[(Indol-3-yl)methylene]-3-(4-methylphenyloxymethyl)-2-pyrazolin-5-one] in this work.
A melting point of 268 to 270 °C was found for `O=C1NN=C(CCc2ccccc2)C1=Cc1c[nH]c2ccccc12` [Example 217, 4-[(Indol-3-yl)methylene]-3-phenylethyl-2-pyrazolin-5-one] in this work.
A melting point of 280 to 282 °C was found for `Cc1ccc(CC2=NNC(=O)C2=Cc2c[nH]c3ccccc23)cc1` [Example 219, 4-[(Indol-3-yl)methylene]-3-(4-methylbenzyl)-2-pyrazolin-5-one] in this work.
A melting point of 265 to 267 °C was found for `O=C1NN=C(Nc2ccccc2)C1=Cc1c[nH]c2ccccc12` [Example 220, 4-[(Indol-3-yl)methylene]-3-phenylamino-2-pyrazolin-5-one] in this work.
A melting point of 255 to 257 °C was found for `Cc1ccc(NC2=NNC(=O)C2=Cc2c[nH]c3ccccc23)cc1` [Example 221, 4-[(Indol-3-yl)methylene]-3-(4-methylphenylamino)-2-pyrazolin-5-one] in this work.
A melting point of 265 to 267 °C was found for `COc1ccc(NC2=NNC(=O)C2=Cc2c[nH]c3ccccc23)cc1` [Example 222, 4-[(Indol-3-yl)methylene]-3-(4-methoxyphenylamino)-2-pyrazolin-5-one] in this work.
A melting point of 274 to 277 °C was found for `O=C1NN=C(Cc2ccc(Cl)cc2)C1=Cc1c[nH]c2ccccc12` [Example 223, 3-(4-Chlorobenzyl)-4-[(indol-3-yl)methylene]-2-pyrazolin-5-one] in this work.
A melting point of 204 to 206 °C was found for `COc1ccc(CC2=NNC(=O)C2=Cc2cn(CCCCO)c3ccccc23)cc1` [Example 224, 4-{[1-(4-hydroxybutyl)indol-3-yl]methylene}-3-(4-methoxybenzyl)-2-pyrazolin-5-one] in this work.
A melting point of 248 to 250 °C was found for `O=C1NN=C(Nc2ccc(Cl)cc2)C1=Cc1c[nH]c2ccccc12` [Example 225, 3-(4-Chlorophenylamino)-4-[(indol-3-yl)methylene]-2-pyrazolin-5-one] in this work.
A melting point of 288 to 290 °C was found for `COc1cccc(CC2=NNC(=O)C2=Cc2c[nH]c3ccccc23)c1` [Example 226, 4-[(Indol-3-yl)methylene]-3-(3-methoxybenzyl)-2-pyrazolin-5-one] in this work.
A melting point of 282 to 284 °C was found for `COc1ccc(CC2=NNC(=O)C2=Cc2c[nH]c3ccccc23)cc1OC` [Example 227, 3-(3,4-dimethoxybenzyl)-4-[(indol-3-yl)methylene]-2-pyrazolin-5-one] in this work.
A melting point of 295 to 300 °C was found for `O=C1NN=C(Cc2ccc(O)cc2)C1=Cc1c[nH]c2ccccc12` [Example 228, 3-(4-hydroxybenzyl)-4-[(indol-3-yl)methylene]-2-pyrazolin-5-one] in this work.
A melting point of 265 to 268 °C was found for `O=C1NN=C(COc2cccc(Cl)c2)C1=Cc1c[nH]c2ccccc12` [Example 229, 3-(3-Chlorophenyloxymethyl)-4-[(indol-3-yl)methylene]-2-pyrazolin-5-one] in this work.
A melting point of 288 to 292 °C was found for `O=C1NN=C(c2c[nH]c3ccccc23)C1=Cc1c[nH]c2ccccc12` [Example 230, 3-(Indol-3-yl)-4-[(indol-3-yl)methylene]-2-pyrazolin-5-one] in this work.
A melting point of 266 to 268 °C was found for `COc1ccc(CCC2=NNC(=O)C2=Cc2c[nH]c3ccccc23)cc1` [Example 231, 4-[(Indol-3-yl)methylene]-3-(4-methoxyphenylethyl)-2-pyrazolin-5-one] in this work.
A melting point of 295 to 296 °C was found for `O=C1NN=C(COc2ccc(-c3ccccc3)cc2)C1=Cc1c[nH]c2ccccc12` [Example 232, 4-[(Indol-3-yl)methylene]-3-(4-phenylphenyloxymethyl)-2-pyrazolin-5-one] in this work.
A melting point of 253 to 255 °C was found for `CC(CC1=NNC(=O)C1=Cc1c[nH]c2ccccc12)c1ccccc1` (stereo not drawn) [Example 233, 4-[(Indol-3-yl)methylene]-3-(2-phenylpropyl)-2-pyrazolin-5-one] in this work.
A melting point of 218 to 220 °C was found for `O=C1NN=C(CCCc2ccccc2)C1=Cc1c[nH]c2ccccc12` [Example 234, 4-[(Indol-3-yl)methylene]-3-(3-phenylpropyl)-2-pyrazolin-5-one] in this work.
A melting point of 271 to 275 °C was found for `O=C1NN=C(CCc2ccc(O)cc2)C1=Cc1c[nH]c2ccccc12` [Example 235, 3-(4-Hydroxyphenylethyl)-4-[(indol-3-yl)methylene]-2-pyrazolin-5-one] in this work.
A melting point of 244 to 245 °C was found for `Cc1ccc(CCC2=NNC(=O)C2=Cc2c[nH]c3ccccc23)cc1` [Example 236, 4-[(Indol-3-yl)methylene]-3-(4-methylphenylethyl)-2-pyrazolin-5-one] in this work.
A melting point of 248 to 250 °C was found for `CCOC1=NNC(=O)C1=Cc1c[nH]c2ccccc12` [Example 237, 3-Ethoxy-4-[(indol-3-yl)methylene]-2-pyrazolin-5-one] in this work.
A melting point of 210 to 212 °C was found for `CC(C)OC1=NNC(=O)C1=Cc1cn(CCCCO)c2ccccc12` [Example 238, 4-{[1-(4-Hydroxybutyl)indol-3-yl]methylene}-3-isopropoxy-2-pyrazolin-5-one] in this work.
A melting point of 205 to 207 °C was found for `O=C1NN=C(CCc2ccccc2)C1=Cc1cn(CCCCO)c2ccccc12` [Example 239, 4-{[1-(4-Hydroxybutyl)indol-3-yl]methylene}-3-phenylethyl-2-pyrazolin-5-one] in this work.
A melting point of 295 to 297 °C was found for `O=C1NN=C(CCc2ccc([N+](=O)[O-])cc2)C1=Cc1c[nH]c2ccccc12` [Example 240, 4-[(Indol-3-yl)methylene]-3-(4-nitrophenylethyl)-2-pyrazolin-5-one] in this work.
A melting point of 246 to 247 °C was found for `CCCOC1=NNC(=O)C1=Cc1c[nH]c2ccccc12` [Example 241, 4-[(Indol-3-yl)methylene]-3-propoxy-2-pyrazolin-5-one] in this work.
A melting point of 251 to 252 °C was found for `O=C1NN=C(Nc2ccc(F)cc2)C1=Cc1c[nH]c2ccccc12` [Example 242, 3-(4-Fluorophenylamino)4-[(indol-3-yl)methylene]--2-pyrazolin-5-one] in this work.
A melting point of 244 to 246 °C was found for `Nc1ccc(CCC2=NNC(=O)C2=Cc2c[nH]c3ccccc23)cc1` [Example 243, 3-(4-Aminophenylethyl)-4-[(indol-3-yl)methylene]-2-pyrazolin-5-one] in this work.
A melting point of 262 to 264 °C was found for `Cc1[nH]c2ccccc2c1C=C1C(=O)NN=C1OC(C)C` [Example 244, 3-Isopropoxy-4-[(2-methylindol-3-yl)methylene]-2-pyrazolin-5-one] in this work.
A melting point of 254 to 256 °C was found for `Cc1cccc2c(C=C3C(=O)NN=C3OC(C)C)c[nH]c12` [Example 245, 3-Isopropoxy-4-[(7-methylindol-3-yl)methylene]-2-pyrazolin-5-one] in this work.
A melting point of 302 to 304 °C was found for `Cc1cccc2c(C=C3C(=O)NN=C3CCc3ccccc3)c[nH]c12` [Example 246, 4-[(7-Methylindol-3-yl)methylene]-3-phenylethyl-2-pyrazolin-5-one] in this work.
A melting point of 277 to 279 °C was found for `O=C1NN=C(C2CCCC2)C1=Cc1c[nH]c2ccccc12` [Example 247, 3-Cyclopentyl-4-[(indol-3-yl)methylene]-2-pyrazolin-5-one] in this work.
A melting point of 239 to 240 °C was found for `CC(C)OC1=NNC(=O)C1=Cc1cn(C)c2ccccc12` [Example 248, 3-Isopropoxy-4-[(1-methylindol-3-yl)methylene]-2-pyrazolin-5-one] in this work.
A melting point of 259 to 260 °C was found for `COC(=O)c1ccc(CCC2=NNC(=O)C2=Cc2c[nH]c3ccccc23)cc1` [Example 249, 4-[(Indol-3-yl)methylene]-3-(4-methoxycarbonylphenylethyl)-2-pyrazolin-5-one] in this work.
A melting point of 161 to 163 °C was found for `CC(C)OC1=NNC(=O)C1=Cc1cn(C(C)C)c2ccccc12` [Example 250, 3-Isopropoxy-4-[(1-isopropylindol-3-yl)methylene]-2-pyrazolin-5-one] in this work.
A melting point of 255 to 257 °C was found for `Cn1cc(C=C2C(=O)NN=C2CCc2ccc(O)cc2)c2ccccc21` [Example 251, 3-(4-Hydroxyphenylethyl)-4-[(1-methylindol-3-yl)methylene]-2-pyrazolin-5-one] in this work.
A melting point of 264 to 266 °C was found for `CC(C)C1=NNC(=O)C1=Cc1c[nH]c2ccccc12` [Example 252, 3-Isopropyl-4-[(indol-3-yl)methylene]-2-pyrazolin-5-one] in this work.
A melting point of 305 to 307 °C was found for `O=C(CC1=NNC(=O)C1=Cc1c[nH]c2ccccc12)Nc1ccc(Cl)cc1` [Example 253, 3-(4-Chlorophenylaminocarbonylmethyl)-4-[(indol-3-yl)methylene]-2-pyrazolin-5-one] in this work.
A melting point of 235 to 237 °C was found for `CCOC(=O)CC1=NNC(=O)C1=Cc1c[nH]c2ccccc12` [Example 254, 3-Ethoxycarbonylmethyl-4-[(indol-3-yl)methylene]-2-pyrazolin-5-one] in this work.
